The values below come from ChEMBL document CHEMBL4390701, “Discovery of 5-(5-fluoro-1H-pyrrolo[2,3-b]pyridin-3-yl)pyrazin-2(1H)-one derivatives as new potent PB2 inhibitors” (Bioorg Med Chem Lett, 2019).

The Kd is a measure of binding affinity in units of concentration. A high value points to a looser complex. The CC50 is the concentration that lowers cell viability or growth by half. What is called EC50 is the concentration that produces a half-maximal response.

The structures appear in SMILES notation. A value given as a limit tells only on which side of the number the result lay.

The nature of series [1]: Binding affinity to influenza virus PB2 transformed into Escherichia coli rosseta competent cells by surface plasmon resonance analysis. Also noted: species or system unidentified influenza virus.
Series [2] in a line: Cytotoxicity against MDCK cells assessed as reduction in cell viability measured after 72 hrs by alamar blue assay. The class given is cell-based, Canis lupus familiaris. Conditions: dog. A general note: The colour change of resazurin is a common sign of viable cells or microbes.
The nature of series [3]: Binding affinity to influenza virus PB2 transformed into Escherichia coli rosseta competent cells by isothermal titration calorimetry. More on the design: species or system unidentified influenza virus. On the technique in general: Isothermal titration calorimetry measures the heat released or taken up as one component is titrated into another.
In a further series the test system is Influenza A virus. Description: Antiviral activity against Influenza A virus (A/PR/8/34 (H1N1)) infected in MDCK cells assessed as reduction in viral replication preincubated for 1 hr followed by compound washout and measured after 48 hrs. Format: functional, organism-based, A/Puerto Rico/8/1934(H1N1).
Series [4] has as its system unidentified influenza virus. As to the kind of experiment: Binding affinity to influenza virus PB2 transformed into Escherichia coli rosseta competent cells assessed as binding constant by isothermal titration calorimetry.
Setting [5] is: Influenza A virus, A/Puerto Rico/8/1934(H1N1), MDCK.

In series [1], `Cn1cc(-c2c[nH]c3ncc(F)cc23)nc(N[C@@H](Cc2ccccc2)C(N)=O)c1=O` yielded a Kd of 22.3 µM.
As for `O=C(O)[C@H]1C2CCC(CC2)[C@@H]1Nc1nc(-c2c[nH]c3ncc(F)cc23)ncc1F` [PIMODIVIR], the CC50 at 72 h in series [2] was greater than 100 µM. The Kd in series [3] was 0.05 µM; in series [1] it was 0.07 µM. Moreover, in the series with Influenza A virus (setting [5]), the EC50 is 0.002 µM.
The compound `Cn1cc(-c2c[nH]c3ncc(F)cc23)nc(NC[C@@H]2CCCO2)c1=O` showed a Kd in series [1] of 10.2 µM.
`Cn1cc(-c2c[nH]c3ncc(F)cc23)nc(NC[C@H]2CCCO2)c1=O` came in with a Kd in series [1] of 8.27 µM.
Still for that read-out and setting: next, `O=C(O)[C@H]1C2CCC(CC2)[C@@H]1Nc1nc(-c2c[nH]c3ncc(F)cc23)cn(Cc2cccc(C(F)(F)F)c2)c1=O`: 2.13 µM.
`CC(C)(C)C1CCC(n2cc(-c3c[nH]c4ncc(F)cc34)nc(N[C@H]3C4CCC(CC4)[C@@H]3C(=O)O)c2=O)CC1` (stereo not given in full) registered a Kd in series [1] of 16.3 µM.
Same read-out and setting: next, `O=C(O)[C@H]1C2CCC(CC2)[C@@H]1Nc1nc(-c2c[nH]c3ncc(F)cc23)cn(C2CCCC2)c1=O`: 0.49 µM.
On to `CCn1cc(-c2c[nH]c3ncc(F)cc23)nc(N[C@H]2C3CCC(CC3)[C@@H]2C(=O)O)c1=O`, for which the CC50 at 72 h in series [2] was greater than 100 µM. In addition, the Kd in series [3] is 0.19 µM; in series [1], 0.11 µM. Besides, in the series on Influenza A virus (setting [5]), the EC50 came out at 1.02 µM. Besides, the K in series [4] came to 5.19 ×10⁶ /M.
In turn, `O=C(O)[C@H]1C2CCC(CC2)[C@@H]1Nc1nc(-c2c[nH]c3ncc(F)cc23)cn(CC(F)F)c1=O` yielded a Kd in series [1] of 0.16 µM.
The compound `CC[C@H](Nc1nc(-c2c[nH]c3ncc(F)cc23)cn(C)c1=O)c1ccccc1` returned a Kd in series [1] of 10.3 µM. This Kd lies about 64-fold higher than the previous one.
Still for that read-out and setting: with `Cn1cc(-c2c[nH]c3ncc(F)cc23)nc(NCCc2cccs2)c1=O` the figure was greater than 50 µM; with `Cc1cc(C)cc(-n2cc(-c3c[nH]c4ncc(F)cc34)nc(N[C@H]3C4CCC(CC4)[C@@H]3C(=O)O)c2=O)c1`, 4.9 µM; with `COc1ccc(-n2cc(-c3c[nH]c4ncc(F)cc34)nc(N[C@H]3C4CCC(CC4)[C@@H]3C(=O)O)c2=O)cc1`, 3.93 µM.
The same measure, in the same setting: next, `Cn1cc(-c2c[nH]c3ncc(F)cc23)nc(N[C@H]2C3CCC(CC3)[C@@H]2C(=O)O)c1=O`: 0.27 µM; `Cn1cc(-c2c[nH]c3ncc(F)cc23)nc(NC23CC4CC(CC(O)(C4)C2)C3)c1=O`: 2.05 µM.
For the compound `CC1CCCCC1Nc1nc(-c2c[nH]c3ncc(F)cc23)cn(C)c1=O` (stereo not given), the Kd in series [1] was determined as 5.23 µM. Against the preceding compound, the Kd is about 2.6-fold higher.
Still for that read-out and setting: next, `CC(C)C(CC(=O)O)Nc1nc(-c2c[nH]c3ncc(F)cc23)cn(C)c1=O` (stereo not given): 3.47 µM.
In series [1], `CCCn1cc(-c2c[nH]c3ncc(F)cc23)nc(N[C@H]2C3CCC(CC3)[C@@H]2C(=O)O)c1=O` displayed a dissociation constant Kd of 0.32 µM. This Kd lies about 11-fold lower than the previous one.
The same measure, in the same setting: with `C[C@H](Nc1nc(-c2c[nH]c3ncc(F)cc23)cn(C)c1=O)c1cccc(F)c1` the figure was 25.7 µM.
As to `NC(=O)c1ncn([C@@H]2O[C@H](CO)[C@@H](O)[C@H]2O)n1` [RIBAVIRIN], in series [2], the CC50 at 72 h is greater than 100 µM. For the same compound, the EC50 in the series with Influenza A virus turned out to be 9.12 µM.
`O=C(O)[C@H]1C2CCC(CC2)[C@@H]1Nc1nc(-c2c[nH]c3ncc(F)cc23)cn(C2CCCCC2)c1=O` returned a Kd in series [1] of 0.74 µM.
In turn, `O=C(O)[C@H]1C2CCC(CC2)[C@@H]1Nc1nc(-c2c[nH]c3ncc(F)cc23)cn(-c2ccc(F)c(F)c2)c1=O` returned a Kd in series [1] of 5.33 µM. Compared with the last compound, the Kd is about 7.2-fold higher.
Same read-out and setting: next, `O=C(O)[C@H]1C2CCC(CC2)[C@@H]1Nc1nc(-c2c[nH]c3ncc(F)cc23)cn(CC(F)(F)F)c1=O`: 0.17 µM; `O=C(O)[C@H]1C2CCC(CC2)[C@@H]1Nc1nc(-c2c[nH]c3ncc(F)cc23)cn(C2CC2)c1=O`: 0.32 µM; `O=C(O)Cn1cc(-c2c[nH]c3ncc(F)cc23)nc(N[C@H]2C3CCC(CC3)[C@@H]2C(=O)O)c1=O`: 0.5 µM.
In series [1], `CC(C1CC1)n1cc(-c2c[nH]c3ncc(F)cc23)nc(N[C@H]2C3CCC(CC3)[C@@H]2C(=O)O)c1=O` (stereo not given in full) returned a Kd of 0.53 µM.
The same measure, in the same setting: next, `O=C(O)[C@H]1C2CCC(CC2)[C@@H]1Nc1nc(-c2c[nH]c3ncc(F)cc23)cn(C2CCC2)c1=O`: 0.47 µM; `O=C(O)[C@H]1C2CCC(CC2)[C@@H]1Nc1nc(-c2c[nH]c3ncc(F)cc23)cn(Cc2cccs2)c1=O`: 1.04 µM.
In the case of `Cn1cc(-c2c[nH]c3ncc(F)cc23)nc(NCCCN2CCOCC2)c1=O`, the dissociation constant (Kd) in series [1] was greater than 50 µM.
Same read-out and setting: next, `CCOc1ccc(-n2cc(-c3c[nH]c4ncc(F)cc34)nc(N[C@H]3C4CCC(CC4)[C@@H]3C(=O)O)c2=O)cc1`: 6.23 µM; `O=C(O)[C@H]1C2CCC(CC2)[C@@H]1Nc1nc(-c2c[nH]c3ncc(F)cc23)cn(-c2ccccc2)c1=O`: 1 µM; `O=C(O)[C@H]1C2CCC(CC2)[C@@H]1Nc1nc(-c2c[nH]c3ncc(F)cc23)cn(-c2ccc(C(F)(F)F)cc2)c1=O`: 7.15 µM.
